The values that follow come from patent publication US20260053834A1, “COVALENT MODIFIERS OF AKT1 AND USES THEREOF” (Terremoto Biosciences, Inc., priority 2023, published 2026).

Experiment [1] has as its system LAPC4 prostate cancer cells, which express the AKT1 E17K allele. The experiment can be described thus: Antiproliferative effects in LAPC4 cells (CellTiter Glo, 72 h). In kind it is cell-based. The note with it: Homo sapiens, LAPC4, 72 h, read-out: LAPC4 proliferation IC50: GeoMean IC50. Put shortly:
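IC50 values come from Hill-equation fitting of luminescence (cellular ATP) after 72 h compound exposure. Treated wells held 1,000 cells each, with compound delivered as DMSO dilutions. Culture medium was IMDM plus 12% FBS.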
(In general: In ATP-based viability assays light output follows the ATP content of the culture.)

In a further experiment the target is T1, AKT1 WT (Homo sapiens, UniProt P31749).
T1 construct: expressed in transfected cells; host or cells: HEK293
In words: Live cell target engagement by NanoBRET competitive probe displacement, AKT1 WT. In kind it is binding. As to conditions: transfected HEK293 cells, 2 h at 37° C., read-out: AKT1 WT IC50: GeoMean IC50.

In a further experiment the target is T2, AKT1 E17K (Homo sapiens, UniProt P31749, E17K).
T2 construct: expressed in transfected cells; host or cells: HEK293
The experiment can be described thus: Live cell target engagement by NanoBRET competitive probe displacement, AKT1 E17K. In kind it is binding. As to conditions: transfected HEK293 cells, 2 h at 37° C., read-out: AKT1 E17K IC50: GeoMean IC50.

Another experiment has as its target T3, AKT2 (Homo sapiens, UniProt P31751).
T3 construct: expressed in transfected cells; host or cells: HEK293
The experiment can be described thus: Live cell target engagement by NanoBRET competitive probe displacement, AKT2. In kind it is binding. The note with it: transfected HEK293 cells, 2 h at 37° C., read-out: AKT2 IC50: GeoMean IC50. On the technique in general: BRET reads energy transfer from a luciferase to a nearby fluorophore.

T2 sequence (P31749 whole entry E17K): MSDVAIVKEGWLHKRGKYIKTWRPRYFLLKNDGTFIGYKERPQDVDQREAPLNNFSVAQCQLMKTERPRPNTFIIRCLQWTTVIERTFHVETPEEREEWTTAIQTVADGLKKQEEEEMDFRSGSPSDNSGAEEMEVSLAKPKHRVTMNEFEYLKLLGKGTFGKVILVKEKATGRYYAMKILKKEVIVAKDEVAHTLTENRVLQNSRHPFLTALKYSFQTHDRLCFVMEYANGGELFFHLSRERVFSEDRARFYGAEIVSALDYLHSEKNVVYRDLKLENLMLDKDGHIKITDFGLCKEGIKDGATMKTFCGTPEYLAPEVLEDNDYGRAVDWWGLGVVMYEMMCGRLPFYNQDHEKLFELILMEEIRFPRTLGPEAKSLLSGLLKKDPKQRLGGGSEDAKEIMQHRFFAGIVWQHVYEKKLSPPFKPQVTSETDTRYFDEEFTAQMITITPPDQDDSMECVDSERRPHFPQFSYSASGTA
T3 sequence (P31751 whole entry): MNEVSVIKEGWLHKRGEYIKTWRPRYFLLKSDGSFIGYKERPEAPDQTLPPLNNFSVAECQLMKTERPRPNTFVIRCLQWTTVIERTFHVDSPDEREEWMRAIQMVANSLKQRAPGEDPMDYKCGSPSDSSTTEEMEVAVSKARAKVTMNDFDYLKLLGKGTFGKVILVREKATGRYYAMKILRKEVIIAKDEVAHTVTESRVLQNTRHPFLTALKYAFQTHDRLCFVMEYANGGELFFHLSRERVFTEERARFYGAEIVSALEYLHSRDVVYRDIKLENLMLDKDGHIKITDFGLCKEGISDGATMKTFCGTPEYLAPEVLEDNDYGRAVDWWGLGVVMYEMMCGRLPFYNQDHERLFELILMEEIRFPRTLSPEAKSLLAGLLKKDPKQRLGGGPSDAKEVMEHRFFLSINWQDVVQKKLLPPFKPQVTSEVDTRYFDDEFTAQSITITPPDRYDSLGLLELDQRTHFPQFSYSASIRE
T1 sequence (P31749 whole entry): as the sequence (P31749 whole entry E17K) above, with K17E counted along it

`Nc1ncccc1-c1nc2ccc(-n3cccn3)nc2n1-c1ccc2c(c1)CC[C@@H]2NC(=O)c1cc(C=O)c(O)c(C(F)(F)F)c1` [Example 100, N-[(1S)-5-[2-(2-aminopyridin-3-yl)-5-(pyrazol-1-yl)imidazo[4,5-b]pyridin-3-yl]-2,3-dihydro-1H-inden-1-yl]-3-formyl-4-hydroxy-5-(trifluoromethyl)benzamide]: the IC50 was in the range of 100 to 2000 nM in experiment [1], 100 to 2000 nM on AKT1 WT, 10 to 100 nM at AKT1 E17K and 100 to 2000 nM at AKT2.
With `C#Cc1cc(C(=O)N[C@H]2CCc3cc(-n4c(-c5cccnc5N)nc5ccc(-n6cccn6)nc54)ccc32)cc(C=O)c1O` [Example 101, N-[(1S)-5-[2-(2-aminopyridin-3-yl)-5-(pyrazol-1-yl)imidazo[4,5-b]pyridin-3-yl]-2,3-dihydro-1H-inden-1-yl]-3-ethynyl-5-formyl-4-hydroxybenzamide], the IC50 in experiment [1] fell in the range of 100 to 2000 nM; at AKT1 WT, 10 to 100 nM; on AKT1 E17K, 10 to 100 nM; on AKT2, 100 to 2000 nM.
In the case of `CC(=O)c1cc(C(=O)N[C@H]2CCc3cc(-n4c(-c5cccnc5N)nc5ccc(-n6cccn6)nc54)ccc32)cc(C=O)c1O` [Example 102, (S)-3-acetyl-N-(5-(2-(2-aminopyridin-3-yl)-5-(1H-pyrazol-1-yl)-3H-imidazo[4,5-b]pyridin-3-yl)-2,3-dihydro-1H-inden-1-yl)-5-formyl-4-hydroxybenzamide], the IC50 in experiment [1] is 100 to 2000 nM; on AKT1 WT, 10 to 100 nM; on AKT1 E17K, 10 to 100 nM; at AKT2, 10 to 100 nM.
Take `Nc1ncccc1-c1nc2ccc(-c3cnccn3)nc2n1-c1ccc2c(c1)CC[C@@H]2NC(=O)c1cc(C=O)c(O)c(F)c1F` [Example 103, N-[(1S)-5-[2-(2-aminopyridin-3-yl)-5-(pyrazin-2-yl)imidazo[4,5-b]pyridin-3-yl]-2,3-dihydro-1H-inden-1-yl]-2,3-difluoro-5-formyl-4-hydroxybenzamide]: the IC50 in experiment [1] fell in the range of 10 to 100 nM; on AKT1 WT, 10 to 100 nM; at AKT1 E17K it was 10 to 100 nM; at AKT2, 100 to 2000 nM.
With `CN(C)C(=O)Nc1ccc(C(=O)N[C@H]2CCc3cc(-n4c(-c5cccnc5N)nc5ccc(-n6cccn6)nc54)ccc32)cc1C=O` [Example 104, N-[(1S)-5-[2-(2-aminopyridin-3-yl)-5-(pyrazol-1-yl)imidazo[4,5-b]pyridin-3-yl]-2,3-dihydro-1H-inden-1-yl]-4-[(dimethylcarbamoyl)amino]-3-formylbenzamide], the IC50 was under 10 nM in experiment [1], 10 to 100 nM on AKT1 WT, under 10 nM on AKT1 E17K and 100 to 2000 nM at AKT2.
For the compound `Nc1ncccc1-c1nc2ccc(-n3cccn3)nc2n1-c1ccc2c(c1)CC[C@@H]2NC(=O)c1cc(C=O)c(O)cc1F` [Example 105, (S)—N-(5-(2-(2-aminopyridin-3-yl)-5-(1H-pyrazol-1-yl)-3H-imidazo[4,5-b]pyridin-3-yl)-2,3-dihydro-1H-inden-1-yl)-2-fluoro-5-formyl-4-hydroxybenzamide], the IC50 lay within 10 to 100 nM in experiment [1], 10 to 100 nM on AKT1 WT, 10 to 100 nM at AKT1 E17K and 100 to 2000 nM at AKT2.
Turning to `COc1ccn(-c2ccc3nc(-c4cccnc4N)n(-c4ccc5c(c4)CC[C@@H]5NC(=O)c4ccc(O)c(C=O)c4)c3n2)n1` [Example 106, N-[(1S)-5-[2-(2-aminopyridin-3-yl)-5-(3-methoxypyrazol-1-yl)imidazo[4,5-b]pyridin-3-yl]-2,3-dihydro-1H-inden-1-yl]-3-formyl-4-hydroxybenzamide], the IC50 in experiment [1] was in the range of 10 to 100 nM; on AKT1 WT, 10 to 100 nM; at AKT1 E17K, 10 to 100 nM; at AKT2 it was 100 to 2000 nM.
Turning to `N#Cc1ccn(-c2ccc3nc(-c4cccnc4N)n(-c4ccc5c(c4)CC[C@@H]5NC(=O)c4ccc(O)c(C=O)c4)c3n2)n1` [Example 108, N-[(1S)-5-[2-(2-aminopyridin-3-yl)-5-(3-cyanopyrazol-1-yl)imidazo[4,5-b]pyridin-3-yl]-2,3-dihydro-1H-inden-1-yl]-3-formyl-4-hydroxybenzamide], the IC50 in experiment [1] was 100 to 2000 nM; on AKT1 WT, 100 to 2000 nM; on AKT1 E17K, 10 to 100 nM; at AKT2, at least 2000 nM.
Consider `Nc1ncccc1-c1nc2ccc(-c3nccnc3F)nc2n1-c1ccc2c(c1)CC[C@@H]2NC(=O)c1ccc(O)c(C=O)c1` [Example 109, N-[(1S)-5-[2-(2-aminopyridin-3-yl)-5-(3-fluoropyrazin-2-yl)imidazo[4,5-b]pyridin-3-yl]-2,3-dihydro-1H-inden-1-yl]-3-formyl-4-hydroxybenzamide], for which the IC50 in experiment [1] was 100 to 2000 nM; on AKT1 WT, 100 to 2000 nM; on AKT1 E17K, 10 to 100 nM; on AKT2, 100 to 2000 nM.
For the compound `Nc1ncccc1-c1nc2ccc(-n3cccn3)nc2n1-c1ccc2c(c1)CC[C@@H]2NC(=O)c1cc(C=O)c(O)c(F)c1Cl` [Example 110, N-[(1S)-5-[2-(2-aminopyridin-3-yl)-5-(pyrazol-1-yl)imidazo[4,5-b]pyridin-3-yl]-2,3-dihydro-1H-inden-1-yl]-2-chloro-3-fluoro-5-formyl-4-hydroxybenzamide], the IC50 in experiment [1] lay in the range of 100 to 2000 nM; on AKT1 WT, 10 to 100 nM; at AKT1 E17K, 10 to 100 nM; on AKT2, 100 to 2000 nM.
As to `CS(=O)(=O)Nc1ncc(C(=O)N[C@H]2CCc3cc(-n4c(-c5cccnc5N)nc5ccc(-n6cccn6)nc54)ccc32)cc1C=O` [Example 111, N-[(1S)-5-[2-(2-aminopyridin-3-yl)-5-(pyrazol-1-yl)imidazo[4,5-b]pyridin-3-yl]-2,3-dihydro-1H-inden-1-yl]-5-formyl-6-methanesulfonamidopyridine-3-carboxamide], the IC50 is at least 2000 nM in experiment [1], 100 to 2000 nM at AKT1 WT, 100 to 2000 nM at AKT1 E17K and at least 2000 nM on AKT2.
For `C#Cc1c(C(=O)N[C@H]2CCc3cc(-n4c(-c5cccnc5N)nc5ccc(-n6cccn6)nc54)ccc32)ccc(O)c1C=O` [Example 112, N-[(1S)-5-[2-(2-aminopyridin-3-yl)-5-(pyrazol-1-yl)imidazo[4,5-b]pyridin-3-yl]-2,3-dihydro-1H-inden-1-yl]-2-ethynyl-3-formyl-4-hydroxybenzamide], the IC50 in experiment [1] is at least 2000 nM; on AKT1 WT, 10 to 100 nM; on AKT1 E17K, 10 to 100 nM; at AKT2, 100 to 2000 nM.
With `Nc1ncccc1-c1nc2ccc(-c3ccn(C(F)F)n3)nc2n1-c1ccc2c(c1)CC[C@@H]2NC(=O)c1ccc(O)c(C=O)c1` [Example 113, N-[(1S)-5-[2-(2-aminopyridin-3-yl)-5-[1-(difluoromethyl)pyrazol3-yl]imidazo [4,5-b]pyridin-3-yl]-2,3-dihydro-1H-inden-1-yl]-3-formyl-4-hydroxybenzamide], the IC50 is 10 to 100 nM in experiment [1], 10 to 100 nM at AKT1 WT, under 10 nM on AKT1 E17K and 100 to 2000 nM on AKT2.
Consider `CN(C)c1ccn(-c2ccc3nc(-c4cccnc4N)n(-c4ccc5c(c4)CC[C@@H]5NC(=O)c4ccc(O)c(C=O)c4)c3n2)n1` [Example 114, (S)—N-(5-(2-(2-aminopyridin-3-yl)-5-(3-(dimethylamino)-1H-pyrazol-1-yl)-3H-imidazo[4,5-b]pyridin-3-yl)-2,3-dihydro-1H-inden-1-yl)-3-formyl-4-hydroxybenzamide], for which the IC50 in experiment [1] lay within 10 to 100 nM; on AKT1 WT, 10 to 100 nM; on AKT1 E17K it was 10 to 100 nM; on AKT2, 100 to 2000 nM.
